Here are results for 8 compounds from article PMC6305398, “Red Fluorescent Chlamydia trachomatis Applied to Live Cell Imaging and Screening for Antibacterial Agents” (Frontiers in Microbiology, 2018).

Data set [1] concerns mCherry expressing C. trachomatis serovar L2 454/Bu. Nature of the data set: Primary screen of natural compound library, Chlamydia inclusion count (mCherry imaging and FITC immunostaining in duplicate plates). It counts as cell-based, Chlamydia trachomatis. As to conditions: Chlamydia trachomatis, 10 μM, 48 hpi, HeLa cells, vs DMSO control. The method, then:
A general and more detailed protocol for the screening assay is provided in (Supplementary Data Sheet 1) and an overview of the screening method is given in Figure 3. Since inhalation of C. trachomatis aerosols can cause laboratory acquired infections (Sewell, [1995]), all procedures involving handling of live infection in open plates were performed manually inside a class II safety cabinet using 8-channel electronic pipets (Rainin E4 XLS, Mettler Toledo, Barcelona, Spain) and an enclosed aspiration system (Intergra VacuSafe, Zizers, Switzerland).
The primary screen of the 349 open access compound library was performed using the mCherry expressing C. trachomatis serovar L2 454/Bu in clear, flat 96-well plates (Nunc, Delta surface, Thermo Fischer Scientific). The primary screen was done in duplicates in separated plates; one plate was used for mCherry imaging and the other for FITC immunostaining. Cells were seeded at a density of 10,000 cells per well in 100 μl DMEM media 1 day prior to infection in culture media. Chlamydia infection was performed in 30 μl HBSS as described above with a MOI of 0.6 during 1 h at 37°C, 5% CO2. Compounds were diluted to 10 μM in DMEM with a final DMSO concentration of 0.5% and 100 μl per well was added after aspiration of HBSS. The plates were incubated for an additional 47 h at 37°C, 5% CO2 prior to imaging. One of the duplicate plates was used for mCherry imaging and one for FITC immunostaining. For mCherry imaging, HeLa cell nuclei were first stained by addition of 10 μl […] Hoechst per well and incubated at 37°C with 5% CO2 for 20 min. The infected cells were fixed in 4% paraformaldehyde (PFA) for 15 min and washed in PBS before image acquisition. Although fixation was not necessary for the analysis, it inactivated the infectious Chlamydia and enabled later analysis after storage at 4°C. For FITC immunostaining, cells were fixed in 150 μl methanol per well for 10 min, blocked in 1% BSA, 0.25% Tween-20 in PBS and incubated with 1:1,000 polyclonal rabbit anti-chlamydial serum in blocking buffer (Marwaha et al., [2014]). A FITC-conjugated donkey anti-rabbit antibody (Jackson ImmunoResearch) and 1 μg/ml Hoechst staining was used for staining followed by washing with blocking buffer. Images of nuclei (Hoechst-ex386/23 nm) and Chlamydia inclusions (FITC: ex485/20 nm; mCherry: ex549/15 nm) were acquired in the ArrayScan with the 10x objective and counted with the built in software. Chlamydia inclusions in DMSO control wells were used to determine an inclusion size cutoff to exclude small underdeveloped inclusions as well as fluorescent artifacts from the analyses.

The nature of another data set: in vitro. The class given is cell-based. The following applies: human, 48 h, percent of DMSO control; for viability at 25 µM: read-out: HeLa cell viability at 25 μM (%); for viability at 50 µM: read-out: HeLa cell viability at 50 μM (%) (converted). How it is done: (§1) HeLa299 cells were inoculated into clear, flat 96-well plates (Nunc, Delta surface, Thermo Fischer Scientific) with a density of 7,000 cells per well and cultured overnight at 37°C with 5% CO2 in […] supplemented with 10% FBS and 2 mM L-glutamine. The following day, the RPMI was replaced with DMEM without phenol red (Life Technologies, Carlsbad, CA, USA) containing 0.5% DMSO with or without test compounds at 25 and 50 μM concentrations incubated at 37°C with 5% CO2 for 48 h. At least three replicate wells for each compound concentration were tested. Wells without cells were used as blank controls. Following this incubation with compounds, cells were washed with DMEM to remove remaining colored compounds and fresh DMEM without phenol red was added before the XTT Cell Proliferation Assay kit was used according to the manufacturer's instructions (ATCC, Manassas, VA, USA). Briefly, activation reagent and XTT reagent were thawed at 37°C, then mixed in a 1:50 ratio with enough volume to add 50 μL to each well. The plates were placed in the 37°C incubator for 2.5 h. The absorbance of each well was then read at 475 nm and 660 nm with a Tecan Infinite m200 plate reader (Tecan, Männedorf, Switzerland). To analyze the data, the 660 nm reading was subtracted from the 475 nm reading to help eliminate non-specific readings from the assay results. Average blank control-well readings were subtracted from those containing cells. Final readings from wells containing compound were compared to DMSO control wells and expressed as percent of control.

The subject of the next data set is HeLa cells. Nature of the data set: in vitro. The following applies: non-toxic = viability not below 70% of vehicle control at 25 μM. The class given is cell-based. The method, then: as §1
The subject of data set [2] is mCherry transformed C. trachomatis. Nature of the data set: Live real time imaging of C. trachomatis infection (time-lapse 24-72 hpi). The class given is cell-based, Chlamydia trachomatis. As to conditions: HeLa cells. The method, then: The anti-chlamydial effect over time of compound 6 (identified in the above screen) was visualized by a time-lapse experiment. HeLa cells were seeded at a concentration of 10,000 cells per well 1 day prior to infection. Chlamydia infection was performed as described above at MOI 0.6 with mCherry transformed C. trachomatis. Phenol red free DMEM culture media containing 6 or 3 μM 6 or 0.5% DMSO was added at 100 μl per well 1 hpi. Images were acquired with 1 h intervals with the 10x objective acquiring 4 fields per well during 48 h. The red channel was used for autofocusing and therefore imaging was initialized 24 hpi when the mCherry expressing inclusions were detectable, continuing to 72 hpi.

The conditions of data set [3]: ref Davis et al., 2013; cited from earlier work.
The subject of a further data set is wt C. trachomatis. Nature of the data set: EC50 determination, large inclusion count in infected HeLa cells, FITC immunostaining. It counts as cell-based, Chlamydia trachomatis. As to conditions: wt strain, 44-48 h; for EC50: Chlamydia trachomatis, read-out: EC50 (95% confidence values). How it is done:
(§2) HeLa cells were inoculated into 96-well plates (Nunc, Corning, New York, USA) with a density of 15,000 cells per well and cultured overnight at 37°C with 5% CO2 in RPMI 1640, supplemented with 10% FBS and 2 mM L-glutamine, and infected the following day with wt or mCherry C. trachomatis in HBSS. At 1 hpi, the inoculum was replaced with RPMI media containing 0.5% DMSO and serial 1:2 dilutions of the tested compounds. The infection was allowed to proceed for 44–48 h before fixation by aspiration of the media and adding methanol for 5 min. Chlamydia inclusions were immunostained as described above. The numbers of large inclusions were counted by the ArrayScan VTI HCS automated scanner. Inhibition of Chlamydia growth was evaluated as the number of inclusions in compound treated infections (evaluated in 12 fields per well, 20x objective) compared to the numbers of inclusions in DMSO treated control infections (% of control). EC50 values are representative of at least three independent experiments. The data analysis was performed using non-linear regression (curve fit) in GraphPad Prism v.5.

In another data set the test system is mammalian cells. As to conditions: ref Davis et al., 2013; cited from earlier work.
In data set [4] the test system is mCherry expressing C. trachomatis. Nature of the data set: EC50 determination, large inclusion count in infected HeLa cells, FITC immunostaining. It counts as cell-based. The following applies: Chlamydia trachomatis, read-out: EC50 (95% confidence values). The method, then:
as §2

[5] abbreviates: MOI 0.6, FITC immunostaining, read-out: Screen inhibition at 10 μM (%) FITC.
[6] abbreviates: MOI 0.6, mCherry detection, read-out: Screen inhibition at 10 μM (%) mCherry.

Entries after “also recorded” stand apart in the source; their conditions may differ. Where two headings read alike, the source gives them in different places.

As for `C[C@]1(O)Cc2c(O)c3c(c(O)c2[C@@H](O)C1)C(=O)C=C(NCCc1ccc(O)cc1)C3=O` [Compound 3], in data set [1] (setting [5]), the inhibition (as a rule, how much of the control response was suppressed) at 10 µM was determined as 100%. Besides, in the data set “in vitro”, the viability (commonly a read-out of living cells in per cent, often relative to untreated cells) at 25 µM is 41 ± 2.5% and the viability at 50 µM is 24%. Also, the “Toxicity to HeLa cells (authors' call)” value in the data set on HeLa cells is “toxic”.

In the case of `NCCc1c[nH]c2c1C(=O)C1=C(NCCS1(=O)=O)C2=O` [Compound 6], the inhibition at 10 µM in data set [1] (setting [5]) and in data set [1] (setting [6]) was 100% in each case. In addition, the viability at 25 µM in “in vitro” came to 77 ± 0.2%. Besides, the viability at 50 µM in the data set “in vitro” is 55%. Besides, the “Toxicity to HeLa cells (authors' call)” value in the data set with HeLa cells was “non-toxic”. Further, the “Growth of red fluorescent Chlamydia inclusions in live imaging” value in data set [2] (3 μM, compared to DMSO control) is “grew at a slower pace; also recorded: continuous growth reduction”. For the same compound, the “Red fluorescent Chlamydia inclusions in live imaging” value in data set [2] (6 μM) is listed as “not detectable”. For the same compound, in data set [3], the “In vitro antimalarial effect, active concentrations” value is listed as “low nanomolar concentrations”. For the same compound, the values for the EC50 (in the data set on wt C. trachomatis; in data set [4]) were 2.8 µM and 1.7 µM, respectively. Besides, the “Toxicity in mammalian cells” value with mammalian cells is reported as “non-toxic”.

With `CCCCNC(=O)NCCc1c[nH]c2c1C(=O)C1=C(NC=CS1(=O)=O)C2=O` [Compound 9], the inhibition at 10 µM in data set [1] (setting [5]) and in data set [1] (setting [6]) was 100% throughout. Besides, the viability at 25 µM in the data set “in vitro” amounted to 37 ± 6.5%. The viability at 50 µM in the data set “in vitro” is 11.5%. The “Toxicity to HeLa cells (authors' call)” value with HeLa cells is recorded as “toxic”.

In the case of `C[C@]1(O)Cc2c(O)c3c(c(O)c2[C@@H](O)C1)C(=O)C=C(NCCc1ccccc1)C3=O` [Compound 2], the inhibition at 10 µM was 100% in data set [1] (setting [5]) and 66% in data set [1] (setting [6]). Also, the viability at 25 µM in the data set “in vitro” was ≥ 70%. The viability at 50 µM in “in vitro” was 31%. Moreover, in the data set with HeLa cells, the “Toxicity to HeLa cells (authors' call)” value is on record as “non-toxic”. The EC50 (as a rule, the midpoint of the concentration-response curve) in the data set on wt C. trachomatis was 23 µM.

For `COCCNC1=CC(=O)c2c(O)c3c(c(O)c2C1=O)C[C@](C)(O)C[C@@H]3O` [Compound 1], the inhibition at 10 µM in data set [1] (setting [5]) and in data set [1] (setting [6]) was 100% each time. Further, in the data set “in vitro”, the viability at 50 µM was 58.5%. In the data set on HeLa cells, the “Toxicity to HeLa cells (authors' call)” value is listed as “non-toxic”. Further, the EC50 is 5.3 µM with wt C. trachomatis and 2.8 µM in data set [4]. For the same compound, the “EC50 (95% confidence values)” value in the data set with wt C. trachomatis was “low micromolar”.

Regarding `CC(C)(C)NC(=O)NCCc1c[nH]c2c1C(=O)C1=C(NC=CS1(=O)=O)C2=O` [Compound 8], in data set [1] (setting [5]), the inhibition at 10 µM stood at 100%. For the same compound, the inhibition at 10 µM in data set [1] (setting [6]) stood at 100%. In “in vitro”, the viability at 25 µM was determined as 30 ± 7% and the viability at 50 µM was 11%. In addition, the “Toxicity to HeLa cells (authors' call)” value in the data set on HeLa cells is “toxic”.

Turning to `C[C@]1(O)Cc2c(O)c3c(c(O)c2[C@@H](O)C1)C(=O)C=C(NCCN1CCOCC1)C3=O` [Compound 4], the inhibition at 10 µM is 100% in data set [1] (setting [5]) and 98% in data set [1] (setting [6]). Also, the viability at 25 µM in the data set “in vitro” was ≥ 70%. In the data set “in vitro”, the viability at 50 µM is 74%. In the data set with HeLa cells, the “Toxicity to HeLa cells (authors' call)” value was “non-toxic”. For the same compound, the EC50 with wt C. trachomatis was 20.8 µM.

Regarding `CC(=O)NCCc1c[nH]c2c1C(=O)C1=C(NC=CS1(=O)=O)C2=O` [Compound 7], the inhibition at 10 µM in data set [1] (setting [5]) worked out at 100%. Also, the inhibition at 10 µM in data set [1] (setting [6]) was 99%. Also, in “in vitro”, the viability at 25 µM was 17 ± 2% and the viability at 50 µM was 6%. In the data set on HeLa cells, the “Toxicity to HeLa cells (authors' call)” value is on record as “toxic”.
